According to patent publication US20230107642A1 (Erasca, Inc., priority 2020, published 2023):

These molecules were tested against T1, Cys12 of the KRAS 4B G12C protein (Homo sapiens, UniProt P01116, G12C) (assay: In vitro covalent adduct formation (CAF) assay, LC-MS intact mass). Settings: 10 uM compound, 60 min.
T1 construct: This protein contained 188 amino acids in total, including an N-terminal 6-Histidine tag; made in house; host or cells: E. coli BL21
Assay type: binding
In short: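 Percent covalent modification from intact-mass LC-MS, by relative free versus adducted protein (adducts within 1 Da of expected mass). Reaction: 10 μM compound with 5 μM E. coli-expressed, GDP-exchanged KRAS 4B G12C in TBS pH 7.4, 4% DMSO, 1 h at 22° C.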

% CAF 10 uM @ 60 min [%] | SMILES
93.8 | C=CC(=O)N1C[C@H](C)N(c2nc(=O)n3c4c(c(-c5ccc(F)cc5)c(C(F)(F)F)cc24)SC[C@@H]3COCOC)C[C@H]1C [Example 1328, (S)-7-((2S,5R)-4-acryloyl-2,5-dimethylpiperazin-1-yl)-10-(4-fluorophenyl)-3-((methoxymethoxy)methyl)-9-(trifluoromethyl)-2,3-dihydro-5H-[1,4]thiazino[2,3,4-ij]quinazolin-5-one]
74.6 | C=CC(=O)N1[C@H](C)CN(c2nc(=O)n3c4c(c(-c5ccc(F)c(Cl)c5)c(C(F)(F)F)cc24)SC[C@@H]3COCOC)C[C@@H]1C [Example 1359, (S)-7-((3S,5R)-4-acryloyl-3,5-dimethylpiperazin-1-yl)-10-(3-chloro-4-fluorophenyl)-3-((methoxymethoxy)methyl)-9-(trifluoromethyl)-2,3-dihydro-5H-[1,4]thiazino[2,3,4-ij]quinazolin-5-one]
82 | [2H]C([2H])=C([2H])C(=O)N1C[C@H](C)N(c2nc(=O)n3c4c(c(-c5cc(Cl)c(F)cc5F)c(C(F)(F)F)cc24)SCC2(COC2)C3)C[C@H]1C (atropisomer, axis not shown) [Example 1434, (R)-8′-((2S,5R)-4-(Acryloyl-d3)-2,5-dimethylpiperazin-1-yl)-11′-(5-chloro-2,4-difluorophenyl)-10′-(trifluoromethyl)-2′H,4′H,6′H-spiro[oxetane-3,3′-[1,4]thiazepino[2,3,4-ij]quinazolin]-6′-one]
95 | C=CC(=O)N1[C@H](C)CN(c2nc(=O)n3c4c(c(-c5cc(Br)c(F)cc5F)c(C(F)(F)F)cc24)SC[C@@H]3COC)C[C@@H]1C (atropisomer, axis not shown) [Example 1448, (3S,10S)-7-((3S,5R)-4-Acryloyl-3,5-dimethylpiperazin-1-yl)-10-(5-bromo-2,4-difluorophenyl)-3-(methoxymethyl)-9-(trifluoromethyl)-2,3-dihydro-5H-[1,4]thiazino[2,3,4-ij]quinazolin-5-one]
96 | C=CC(=O)N1[C@H](C)CN(c2nc(=O)n3c4c(c(-c5ccc(F)cc5)c(C(F)(F)F)cc24)SC[C@@H](N2CCCC2=O)C3)C[C@@H]1C [Example 1450, (S)-8-((3S,5R)-4-acryloyl-3,5-dimethylpiperazin-1-yl)-11-(4-fluorophenyl)-3-(2-oxopyrrolidin-1-yl)-10-(trifluoromethyl)-3,4-dihydro-2H,6H-[1,4]thiazepino[2,3,4-ij]quinazolin-6-one]
92.7 | C=CC(=O)N1[C@H](C)CN(c2nc(=O)n3c4c(c(-c5ccc(F)cc5)c(C(F)(F)F)cc24)SC[C@@H](COC)C3)C[C@@H]1C [Example 1407, (R)-8-((3S,5R)-4-acryloyl-3,5-dimethylpiperazin-1-yl)-11-(4-fluorophenyl)-3-(methoxymethyl)-10-(trifluoromethyl)-3,4-dihydro-2H,6H-[1,4]thiazepino[2,3,4-ij]quinazolin-6-one]
83.7 | C=CC(=O)N1[C@H](C)CN(c2nc(=O)n3c4c(c(-c5ccc(F)cc5)c(C(F)(F)F)cc24)SC[C@H](COC)C3)C[C@@H]1C [Example 1408, (S)-8-((3S,5R)-4-acryloyl-3,5-dimethylpiperazin-1-yl)-11-(4-fluorophenyl)-3-(methoxymethyl)-10-(trifluoromethyl)-3,4-dihydro-2H,6H-[1,4]thiazepino[2,3,4-ij]quinazolin-6-one]
93.3 | C=CC(=O)N1[C@H](C)CN(c2nc(=O)n3c4c(c(-c5cc(Cl)c(F)cc5F)c(C(F)(F)F)cc24)SCC2(COC2)C3)C[C@@H]1C (atropisomer, axis not shown) [Example 1361a, (R)-8′-((3S,5R)-4-acryloyl-3,5-dimethylpiperazin-1-yl)-11′-(5-chloro-2,4-difluorophenyl)-10′-(trifluoromethyl)-2′H,4′H,6′H-spiro[oxetane-3,3′-[1,4]thiazepino[2,3,4-ij]quinazolin]-6′-one]

The next lines start with the molecule.

SMILES | % CAF 10 uM @ 60 min [%]
C=CC(=O)N1[C@H](C)CN(c2nc(=O)n3c4c(c(-c5ccc(F)cc5F)c(C(F)(F)F)cc24)SC[C@@H]3CN(C)C)C[C@@H]1C (atropisomer, axis not shown) [Example 1325, (3S,10S)-7-((3S,5R)-4-acryloyl-3,5-dimethylpiperazin-1-yl)-10-(2,4-difluorophenyl)-3-((dimethylamino)methyl)-9-(trifluoromethyl)-2,3-dihydro-5H-[1,4]thiazino[2,3,4-ij]quinazolin-5-one] | 81.4
C=CC(=O)N1CCN(c2nc(=O)n3c4c(c(-c5ccc(F)cc5F)c(C(F)(F)F)cc24)SC[C@@H]3CN2CCN(CC)CC2)CC1 (atropisomer, axis not shown) [Example 1317, (3S,10S)-7-(4-acryloylpiperazin-1-yl)-10-(2,4-difluorophenyl)-3-((4-ethylpiperazin-1-yl)methyl)-9-(trifluoromethyl)-2,3-dihydro-5H-[1,4]thiazino[2,3,4-ij]quinazolin-5-one] | 98.3
C=CC(=O)N1CC2COCC(C1)N2c1nc(=O)n2c3c(c(-c4ccc(F)cc4)c(C(F)(F)F)cc13)SC[C@@H]2COC [Example 1383, (3S)-7-(7-acryloyl-3-oxa-7,9-diazabicyclo[3.3.1]nonan-9-yl)-10-(4-fluorophenyl)-3-(methoxymethyl)-9-(trifluoromethyl)-2,3-dihydro-5H-[1,4]thiazino[2,3,4-ij]quinazolin-5-one] | 66

Same assay, conditions: 10 μM compound, after 1 hour

CAF (% after 1 hour) [%] | SMILES
95 | C=CC(=O)N1[C@H](C)CN(c2nc(=O)n3c4c(c(-c5ccc(F)cn5)c(C(F)(F)F)cc24)SC[C@@H](OC)C3)C[C@@H]1C [Example 1207, (S)-8-((3S,5R)-4-acryloyl-3,5-dimethylpiperazin-1-yl)-11-(5-fluoropyridin-2-yl)-3-methoxy-10-(trifluoromethyl)-3,4-dihydro-2H,6H-[1,4]thiazepino[2,3,4-ij]quinazolin-6-one]
69 | C=CC(=O)N1[C@H](C)CN(c2nc(=O)n3c4c(c(-c5ccc(F)cc5C(N)=O)c(C(F)(F)F)cc24)SC[C@@H](OC)C3)C[C@@H]1C [Example 1235, 2-((3S)-8-((3S,5R)-4-acryloyl-3,5-dimethylpiperazin-1-yl)-3-methoxy-6-oxo-10-(trifluoromethyl)-3,4-dihydro-2H,6H-[1,4]thiazepino[2,3,4-ij]quinazolin-11-yl)-5-fluorobenzamide]

Same assay, conditions: after 60 min

CAF (% binding after 60 min) [%] | SMILES
96 | C=CC(=O)N1[C@H](C)CN(c2nc(=O)n3c4c(c(-c5ccc(F)cc5)c(C(F)(F)F)cc24)SC[C@H](OCOC)C3)C[C@@H]1C [Example 1009, (R)-8-((3S,5R)-4-acryloyl-3,5-dimethylpiperazin-1-yl)-11-(4-fluorophenyl)-3-(methoxymethoxy)-10-(trifluoromethyl)-3,4-dihydro-2H,6H-[1,4]thiazepino[2,3,4-ij]quinazolin-6-one]
97 | C=CC(=O)N1CCN(c2nc(=O)n3c4c(c(-c5ccc(F)cc5)c(C(F)(F)F)cc24)SC[C@@H](OCOC)C3)CC1 [Example 1004, (S)-8-(4-acryloylpiperazin-1-yl)-11-(4-fluorophenyl)-3-(methoxymethoxy)-10-(trifluoromethyl)-3,4-dihydro-2H,6H-[1,4]thiazepino[2,3,4-ij]quinazolin-6-one]
96 | C=CC(=O)N1[C@H](C)CN(c2nc(=O)n3c4c(c(-c5ccc(F)cc5)c(C(F)(F)F)cc24)SC[C@@H](OCCOC)C3)C[C@@H]1C [Example 1025, (S)-8-((3S,5R)-4-acryloyl-3,5-dimethylpiperazin-1-yl)-11-(4-fluorophenyl)-3-(2-methoxyethoxy)-10-(trifluoromethyl)-3,4-dihydro-2H,6H-[1,4]thiazepino[2,3,4-ij]quinazolin-6-one]
96 | C=CC(=O)N1[C@H](C)CN(c2nc(=O)n3c4c(c(-c5ccc(F)c(Cl)c5)c(C(F)(F)F)cc24)SC[C@H](OCCOC)C3)C[C@@H]1C [Example 1028, (R)-8-((3S,5R)-4-acryloyl-3,5-dimethylpiperazin-1-yl)-11-(3-chloro-4-fluorophenyl)-3-(2-methoxyethoxy)-10-(trifluoromethyl)-3,4-dihydro-2H,6H-[1,4]thiazepino[2,3,4-ij]quinazolin-6-one]
97 | C=CC(=O)N1CCN(c2nc(=O)n3c4c(c(-c5ccc(F)c(Cl)c5)c(C(F)(F)F)cc24)SC[C@H](OCCOC)C3)CC1 [Example 1020, (R)-8-(4-acryloylpiperazin-1-yl)-11-(3-chloro-4-fluorophenyl)-3-(2-methoxyethoxy)-10-(trifluoromethyl)-3,4-dihydro-2H,6H-[1,4]thiazepino[2,3,4-ij]quinazolin-6-one]
96 | C=CC(=O)N1[C@H](C)CN(c2nc(=O)n3c4c(c(-c5ccc(F)c(Cl)c5)c(C(F)(F)F)cc24)SC[C@@H](OCCOC)C3)C[C@@H]1C [Example 1029, (S)-8-((3S,5R)-4-acryloyl-3,5-dimethylpiperazin-1-yl)-11-(3-chloro-4-fluorophenyl)-3-(2-methoxyethoxy)-10-(trifluoromethyl)-3,4-dihydro-2H,6H-[1,4]thiazepino[2,3,4-ij]quinazolin-6-one]
95 | C=CC(=O)N1[C@H](C)CN(c2nc(=O)n3c4c(c(-c5cc(Cl)c(F)cc5F)c(C(F)(F)F)cc24)SC[C@@H](OCCOC)C3)C[C@@H]1C [Example 1031, (3S)-8-((3S,5R)-4-acryloyl-3,5-dimethylpiperazin-1-yl)-11-(5-chloro-2,4-difluorophenyl)-3-(2-methoxyethoxy)-10-(trifluoromethyl)-3,4-dihydro-2H,6H-[1,4]thiazepino[2,3,4-ij]quinazolin-6-one]
